Data: patent US12239645B2, “Targeted dosing for the treatment of complement mediated disorders” (Achillion Pharmaceuticals, Inc., priority 2018, dated 2025)
Converted amounts (≈) assume the structure as drawn. Where two headings read alike, the source gives them in different places.

Key:
[1] = test system: complement alternative pathway (AP) activity; experiment: MAD study: serum AP activity ex vivo by AP Wieslab assay; assay type: in vivo, human; conditions: for % AUEC0-12 / DURATION0-12: Days 7 and 14 combined analysis
Description: Serum AP hemolysis activity was assessed in samples collected from all cohorts at predefined time points from Day 1 (pre-dose) through Day 21. Intense sampling was obtained on Day 1 (0 h to 12 h), Day 7 (0 h to 12 h), and Day 14 (0 h to 16 h); all other serum samples were collected at 0 h (morning PK troughs) on the indicated days. Activity for each cohort is shown for the complete time course Day 1-21 (FIG. 17), Day 1 (FIG. 18), Day 7 (FIG. 19) and Day 14 (FIG. 20). Serum complement AP activity measured ex vivo by the AP Wieslab assay, serum total complement classical pathway (CP) activity, plasma complement Bb concentrations, and serum FD, C3, and C4 concentrations were also measured at predefined time points.

[2] = Multiple ascending dose (MAD) study: multiple-dose pharmacokinetics; assay type: in vivo, human; conditions: for concentration at 120 h: Day 6, 0 hr post-dose (120 h); for concentration at 132 h: Day 6, 12 hr post-dose (132 h); for concentration at 144 h: Day 7, 0 hr post-dose (144 h); for concentration at 156 h: Day 7, 12 hr post-dose (156 h); for concentration at 168 h: Day 8, 0 hr post-dose (168 h); for concentration at 192 h: Day 9, 0 hr post-dose (192 h); for concentration at 288 h: Day 13, 0 hr post-dose (288 h); for concentration at 300 h: Day 13, 12 hr post-dose (300 h); for concentration at 312 h: Day 14, 0 hr post-dose (312 h); for Cmax: read-out: Cmax, Mean
Description: A multiple ascending dose (MAD) study of Compound 1 with two additional single-dose cohorts was also completed. […] Secondary objectives included evaluation of the pharmacokinetic (PK) profile and the relationship between Compound 1 PK and pharmacodynamic (PD) characteristics, that is, the inhibition of complement alternative pathway (AP) activity (PK/PD). In the MAD study, multiple-dose pharmacokinetics and pharmacodynamics of Compound 1 were evaluated in four dose groups administered Compound 1 (40, 80, 120 and 200 mg BID) in the fasted state for 14-days (Table 3). Eight subjects received active drug in each group; eight subjects received placebo in the first dose group (40 mg) and two subjects received placebo in each of the other three dose groups. Two additional cohorts were administered Compound 1 at single doses of 240 mg (fasted subjects) and 120 mg (fed subjects) (Table 3). The two single-dose cohorts each comprised six subjects receiving active drug and two subjects receiving placebo. Plasma and serum samples for PK and PD assessment were collected on selected days prior to dosing (at local troughs), and on days 1, 7, and 14 at 0.5-hour to 2-hour intervals for more detailed assessment.

[3] = Homo sapiens, sigmoidal model, multiple-dose cohorts
[4] = human, plasma, oral, 40 mg BID, read-out: Pre-dose (trough) plasma concentration, Mean
[5] = human, plasma, oral, 40 mg, 40 mg BID × 14 Days, Day 1
[6] = human, plasma, oral, 40 mg, 40 mg BID × 14 Days, Day 7
[7] = human, plasma, oral, 40 mg, 40 mg BID × 14 Days, Day 14
[8] = human, plasma, oral, 80 mg BID, read-out: Pre-dose (trough) plasma concentration, Mean
[9] = human, plasma, oral, 80 mg, 80 mg BID × 14 Days, Day 1
[10] = human, plasma, oral, 80 mg, 80 mg BID × 14 Days, Day 7
[11] = human, plasma, oral, 80 mg, 80 mg BID × 14 Days, Day 14
[12] = human, plasma, oral, 80 mg, 80 mg BID, read-out: Pre-dose (trough) plasma concentration, Mean

EC50 ([1]; Homo sapiens, Emax model, multiple-dose cohorts): 0.0143 µg/mL (≈ 0.0237 µM)
EC50 [1, 3]: 0.0192 µg/mL (≈ 0.0319 µM)
EC90 [1, 3]: 0.0669 µg/mL (≈ 0.111 µM)
Mean pre-dose concentrations at steady-state, range ([2]; 40 mg BID): 15.6 to 23.5 ng/mL
Mean pre-dose concentrations at steady-state, range ([2]; 80 mg BID): 45.9 to 83.7 ng/mL
Mean pre-dose concentrations at steady-state, range ([2]; 120 mg BID): 80.6 to 153 ng/mL
Mean pre-dose concentrations at steady-state, range ([2]; 200 mg BID): 247 to 392 ng/mL
concentration at 120 h [2, 4]: 27.8 ng/mL
concentration at 132 h [2, 4]: 17.9 ng/mL
concentration at 144 h [2, 4]: 24.3 ng/mL
concentration at 156 h [2, 4]: 15.7 ng/mL
concentration at 168 h [2, 4]: 27.8 ng/mL
concentration at 192 h [2, 4]: 26.9 ng/mL
concentration at 288 h [2, 4]: 23.5 ng/mL
concentration at 300 h [2, 4]: 15.3 ng/mL
concentration at 312 h [2, 4]: 25.2 ng/mL
concentration at 324 h ([2]; human, plasma, oral, 40 mg BID, Day 14, 12 hr post-dose (324 h), read-out: Pre-dose (trough) plasma concentration, Mean): 16.2 ng/mL
concentration at 12 h ([2]; human, plasma, oral, 40 mg BID, all 12 hr (evening) troughs, read-out: Mean C(12), steady-state trough): 15.6 ng/mL
Tmax [2, 5]: 1.56 h
AUC(0-t) ([2]; human, plasma, oral, 40 mg, 40 mg BID × 14 Days, Day 1, read-out: AUC(0-12), Mean): 392 ng·h/mL
Cmax [2, 5]: 107 ng/mL
Tmax [2, 6]: 1.8 h
AUC(0-t) ([2]; human, plasma, oral, 40 mg, 40 mg BID × 14 Days, Day 7, read-out: AUC(0-12), Mean): 741 ng·h/mL
AUC(0-t) ([2]; human, plasma, oral, 40 mg, 40 mg BID × 14 Days, Day 7, read-out: AUC(0-24), Mean): 1480 ng·h/mL
Cmax [2, 6]: 169 ng/mL
Tmax [2, 7]: 1.58 h
AUC(0-t) ([2]; human, plasma, oral, 40 mg, 40 mg BID × 14 Days, Day 14, read-out: AUC(0-12), Mean): 732 ng·h/mL
AUC(0-t) ([2]; human, plasma, oral, 40 mg, 40 mg BID × 14 Days, Day 14, read-out: AUC(0-24), Mean): 1460 ng·h/mL
Cmax [2, 7]: 156 ng/mL
concentration at 156 h [2, 8]: 43.7 ng/mL
concentration at 168 h [2, 8]: 109 ng/mL
concentration at 192 h [2, 8]: 102 ng/mL
concentration at 288 h [2, 8]: 63.3 ng/mL
concentration at 300 h [2, 8]: 45.2 ng/mL
concentration at 312 h [2, 8]: 85 ng/mL
Tmax [2, 9]: 1.79 h
AUC(0-t) ([2]; human, plasma, oral, 80 mg, 80 mg BID × 14 Days, Day 1, read-out: AUC(0-12), Mean): 856 ng·h/mL
Cmax [2, 9]: 207 ng/mL
Tmax [2, 10]: 2 h
AUC(0-t) ([2]; human, plasma, oral, 80 mg, 80 mg BID × 14 Days, Day 7, read-out: AUC(0-12), Mean): 1990 ng·h/mL
AUC(0-t) ([2]; human, plasma, oral, 80 mg, 80 mg BID × 14 Days, Day 7, read-out: AUC(0-24), Mean): 3990 ng·h/mL
Cmax [2, 10]: 472 ng/mL
Tmax [2, 11]: 2.14 h
AUC(0-t) ([2]; human, plasma, oral, 80 mg, 80 mg BID × 14 Days, Day 14, read-out: AUC(0-12), Mean): 1980 ng·h/mL
AUC(0-t) ([2]; human, plasma, oral, 80 mg, 80 mg BID × 14 Days, Day 14, read-out: AUC(0-24), Mean): 3970 ng·h/mL
Cmax [2, 11]: 453 ng/mL
concentration at 120 h [2, 12]: 73.8 ng/mL
concentration at 132 h [2, 12]: 52.1 ng/mL
concentration at 144 h [2, 12]: 69.1 ng/mL
Compound: CC(=O)c1nn(CC(=O)N2[C@H](C(=O)Nc3nc(Br)ccc3C)C[C@@]3(C)C[C@@H]23)c2ccc(-c3cnc(C)nc3)cc12 [Compound 1, (1R,3S,5R)-2-(2-(3-acetyl-5-(2-methylpyrimidin-5-yl)-1H-indazol-1-yl)acetyl)-N-(6-bromo-3-methylpyridin-2-yl)-5-methyl-2-azabicyclo[3.1.0]hexane-3-carboxamide]
% AUEC0-12 ([1]; 120 mg BID): 98.6%
DURATION0-12 ([1]; 120 mg BID): 11.6 h
% AUEC0-12 ([1]; 200 mg BID): 99.3%
DURATION0-12 ([1]; 200 mg BID): 11.9 h
inhibition at 120 mg ([1]; Homo sapiens, 120 mg BID and 200 mg BID, read-out: calculated percent inhibition across 0 h and 12 h time points): > 90%
